Results from US6534099B1, “Pesticidal compositions containing menthyl salicylate” (Ecosmart Technologies, Inc., priority 1993, dated 2003).

Legend:
black ants = assay: Open glass petri dish exposure (Study E); format: in vivo; conditions: mixed with soybean oil
Excerpt: (§1) To address whether the efficacy of PEP will be increased with menthyl salicylate/soybean oil against harvester and black ants.
(§2) glass petri dishes 100 mm were used in this study
(§3) all treated dishes kept open during the time of exposure

German cockroaches = assay: Walk-across continuous exposure in treated jars (Study A and B); format: in vivo
Method: Experiment 1: To determine the lethal activity of menthyl salicylate against cockroaches. Menthyl salicylate was tested at 250 mg/jar against German cockroaches. Two replicates were used in this study. Three adult German cockroaches were used per replicate. Continuous exposure was performed with “walk-across”. All controls and treated roaches were under continuous observations for 6 hrs.
Experiment 1. To determine whether menthyl salicylate acts as a synergist to eugenol and /or PEP blend. This experiment was also conducted against German cockroaches as described in Study A. Several blends of Eugenol/PEP were tested.

harvester = assay: Open glass petri dish exposure (Study E); format: in vivo, harvester ants; conditions: mixed with soybean oil
Excerpt: as §1, §2, §3

CC1CCC(C(C)C)C(OC(=O)c2ccccc2O)C1 (stereo not drawn) [Menthyl salicylate, 2-hydroxybenzoic acid 5-methyl-2-(1-methylethyl)cyclohexyl ester]
time to 100% M (black ants): ≤ 40 min
killing agent (conclusion in words) (German cockroaches; 250 mg/jar): good killing agent
mortality (M) (German cockroaches; 250 mg/jar, 24 hr after continuous exposure): 100%
KD (knock-down) (German cockroaches; menthyl salicylate 250 mg/jar, 20 min after exposure): 30%
synergy with eugenol/PEP (in words) (German cockroaches; menthyl salicylate at 4-250 mg): synergizes the efficacy of eugenol/PEP
time to 100% M (harvester): ≤ 11 min
